The text below walks through data of article PMC6562422, “Huzhangoside A Suppresses Tumor Growth through Inhibition of Pyruvate Dehydrogenase Kinase Activity” (Cancers, 2019).

For data set [1], the system named is A549. Further details: method as in PMID 19952458. The note with it: read-out: IC50 against human cancer cell line; cited from earlier work.
In data set [2] the test system is HSC-2. Further details: method as in PMID 19952458. The note with it: read-out: IC50 against human cancer cell line; cited from earlier work.
The subject of data set [3] is DLD-1 cells. The data set is described as follows: MTT cell viability assay. The class given is cell-based, human. On the procedure: (§1) The cytotoxic effect of Hu.A was confirmed using a MTT assay. Briefly, DLD-1 cells (10^5 cells per well) were seeded in a 24-well plate and incubated overnight. The cells were then shifted to serum-free media and treated with Hu.A. MTT solution (2 mg/mL) was then added to the cells. The absorbance of formazan crystals formed were measured using a Spectramax M2 microplate reader (Molecular Devices, Sunnyvale, CA, USA) at 540 nm.

Data set [4] deals with T1, PDHK1 (Homo sapiens, UniProt Q15118).
T1 construct: made in house; host or cells: Escherichia coli BL21(DE3)
T1 sequence (Q15118 29-436): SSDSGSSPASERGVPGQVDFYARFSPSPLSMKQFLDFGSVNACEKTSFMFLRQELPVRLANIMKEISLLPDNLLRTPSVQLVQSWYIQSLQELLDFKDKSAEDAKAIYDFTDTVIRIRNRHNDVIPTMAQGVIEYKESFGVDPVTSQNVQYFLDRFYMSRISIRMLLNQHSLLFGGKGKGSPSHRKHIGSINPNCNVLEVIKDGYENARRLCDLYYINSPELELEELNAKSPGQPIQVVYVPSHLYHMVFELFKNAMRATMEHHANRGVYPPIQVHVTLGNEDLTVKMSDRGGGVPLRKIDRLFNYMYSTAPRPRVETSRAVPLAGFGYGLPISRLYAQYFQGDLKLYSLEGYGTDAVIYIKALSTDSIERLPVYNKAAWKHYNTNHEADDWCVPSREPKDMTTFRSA
The data set is described as follows: ATP-binding assay. The note with it: His-tagged PDHK1 on Ni-NTA beads, 37 °C. On the procedure: The cloned PDHK1 was expressed in Escherichia coli BL21(DE3). The overexpressed protein was purified using affinity chromatography and gel filtration chromatography. The purified His-tagged PDHK1 was bound to Ni-NTA beads in binding buffer (20 mM HEPES-K^+ (pH 7.2) and 0.05% BSA) at 4 °C. The Ni-NTA beads with bound His-tagged PDHK1 were washed with the binding buffer followed by incubation with [α-^32P]ATP, ATP, and Hu.A at 37 °C. The beads were then washed with wash buffer (PBS). The bead-bound PDHK1 protein was achieved by 250 mM imidazole, and its radioactivity was detected by liquid scintillation counting.

In data set [5] the test system is LLC cell allograft. The data set is described as follows: LLC tumor allograft in C57BL/6 mice. The class given is in vivo. On the procedure:
LLC cells (5 × 10^5 cells/100 μL PBS) were injected into the dorsal subcutaneous skin of C57BL/6 mice (n = 8 mice per group). The control (untreated) group and Hu.A-treated groups were administered 0 mg/kg and 0.1 mg/kg, 0.5 mg/kg, and 1 mg/kg of Hu.A in 100 μL PBS/20 g via intraperitoneal (i.p.) injection for 14 days, respectively. The mice were killed 14 days after inoculation of LLC cells and the tumors were seceded from the mice and analyzed. The volumes of LLC cell derived-tumors were calculated using the formula ((length × width^2)/2).
For immunohistochemical analysis, the tumor tissues were fixed with 3.7% formalin in PBS and embedded in paraffin. The paraffin sections were incubated with a primary antibody against the Ki-67, a cell proliferation marker, and visualized via Dako EnVision kit (Dako, Jena, Germany). The sections were counterstained with hematoxylin.

Data set [6] relates to LLC cells. The experiment in a line: MTT cell viability assay. The class given is cell-based, murine. The note with it: 3 μM, 24 h, serum free medium. Here is the method:
as §1
Supplementary materials Huzhangoside A Suppresses Tumor
Growth through Inhibition of Pyruvate
Dehydrogenase Kinase Activity
Choong-Hwan Kwak, Jung-Hee Lee, Eun-Yeong Kim, Chang Woo Han, Keuk-Jun Kim, Hanna Lee, MyoungLae Cho, Se Bok Jang, Cheorl-Ho Kim, Tae-Wook Chung and Ki-Tae Ha
Figure S1. Hu.A inhibited cell viability and phosphorylation of PDHA in LLC cells. (A) The LLC cells were treated with indicated concentrations of Hu.A in serum free medium for 24 h and MTT assay was performed. The data was indicated as mean ± SD. * p < 0.05 and *** p < 0.001 compared with the control. (B) In serum free condition, the LLC cells were treated with indicated concentrations of Hu.A for 4 h. The levels of phosphor-PDHA and total PDHA were analyzed by Western blotting assay. (C) Schematic diagram of the mechanisms of Hu.A-mediated apoptosis was shown. The red circle and white P indicated phosphates. […]

In data set [7] the test system is HL-60. Further details: method as in PMID 19952458. The note with it: read-out: IC50 against human cancer cell line; cited from earlier work.
Data set [8] concerns MDA-MB-231 cells. The data set is described as follows: MTT cell viability assay. In kind it is cell-based, human. The following applies: 3 μM, 24 h. (Tetrazolium assays rely on reduction of a dye to a coloured formazan, in cell work by metabolically active cells.)
The subject of data set [9] is DLD-1 cells. The experiment in a line: O2 consumption assay. The class given is cell-based, human. The note with it: serum-free medium, 6 h. Here is the method: The O2 consumption rate was determined using the Oxygen Consumption Rate Assay Kit (Cayman Chemical, Ann Arbor, MI, USA) following the manufacturer’s protocol. The fluorescence of the oxygen probe was measured using the Spectramax M2 microplate reader at wavelengths of 380/650 nm.

For data set [10], the system named is DLD-1 cells. The experiment in a line: Lactate production assay. The class given is cell-based, human. On the procedure:
Lactate in the cell culture medium was analyzed by a lactate fluorometric assay kit (Biovision, Milpitas, CA, USA) and measured using the Spectramax M2 microplate reader at 570 nm.

Data set [11] deals with HT-29 cells. The experiment in a line: MTT cell viability assay. The note with it: 3 μM, 24 h. The class given is cell-based, human.
The target of data set [12] is T2, PDHK and PDC E2 subunit (Homo sapiens, UniProt Q15118).
T2 construct: expressed in transfected cells; host or cells: HEK293T (GST-PDHK1 transfected; E2 endogenous from HEK293T whole cell lysate)
T2 sequence (Q15118 29-436): as above
T2 sequence (P10515 87-647 partner): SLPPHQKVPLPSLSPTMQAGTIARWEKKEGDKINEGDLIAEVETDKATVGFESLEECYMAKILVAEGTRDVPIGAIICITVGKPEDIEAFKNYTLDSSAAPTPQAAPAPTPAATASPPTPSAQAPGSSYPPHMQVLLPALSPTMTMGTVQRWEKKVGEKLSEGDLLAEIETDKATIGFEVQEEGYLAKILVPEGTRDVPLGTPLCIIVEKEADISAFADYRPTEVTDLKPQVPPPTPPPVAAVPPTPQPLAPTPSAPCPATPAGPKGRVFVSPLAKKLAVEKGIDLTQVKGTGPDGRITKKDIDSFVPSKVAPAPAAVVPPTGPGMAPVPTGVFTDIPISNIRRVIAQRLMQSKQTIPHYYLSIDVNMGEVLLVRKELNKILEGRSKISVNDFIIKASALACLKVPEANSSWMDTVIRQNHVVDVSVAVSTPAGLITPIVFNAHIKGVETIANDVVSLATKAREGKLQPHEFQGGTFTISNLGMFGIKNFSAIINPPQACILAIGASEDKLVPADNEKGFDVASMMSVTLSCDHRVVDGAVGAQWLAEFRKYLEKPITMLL
The experiment in a line: PDC subunits and PDHK binding assay. The note with it: 500 μM Hu.A, GST-PDHK1 pull-down, HEK293T lysate. On the procedure: HEK293T cells, transfected with GST-PDHK1 construct, were lysed and incubated with Glutathione Sepharose 4B beads. The beads were washed and HEK293T whole cell lysate was added with/without 500 μM of Hu.A and the samples were analyzed by western blot analysis.

Data set [13] relates to Hep3B cells. The data set is described as follows: MTT cell viability assay. The class given is cell-based, human. The note with it: 3 μM, 24 h.
In data set [14] the test system is HSC-4. Further details: method as in PMID 19952458. The following applies: read-out: IC50 against human cancer cell line; cited from earlier work.
Data set [15] relates to PDHK1-4. The experiment in a line: PDHK1-4 protein expression (western blot) in DLD-1 cells. In kind it is cell-based, human. The following applies: serum-free medium, 4 h. On the procedure: Figure 2 Hu.A reduced the PDHK1 activity and promoted oxidative phosphorylation (OXPHOS) in DLD-1 cells. (A) In vitro PDHK1 kinase assay was performed. (B, C) DLD-1 cells were treated with Hu.A in serum-free medium for 4 h. The levels of phosphorylated pyruvate dehydrogenase E1α subunit (PDHA) (B), and PDHK1-4 (C) were analyzed using western blot assay. PDHA (B) and GAPDH (C) were used as loading controls. (D) The intensity of bands (PDHK1-4/GAPDH) from three independent experiments was measured and indicated by mean ± SD. (E) DLD-1 cells were treated with Hu.A in serum-free medium for 6 h. O2 consumption rate was measured by using commercially available Oxygen Consumption Rate Assay Kit. (F) Lactate production was measured by lactate fluorometric assay kit (right panel). The data are shown as mean ± SD, respectively. **, p < 0.01 compared with control.
Western blotting assay was carried out as described previously. Briefly, equal amounts (20 μg) of the cell lysates were separated by sodium dodecyl sulfate–polyacrylamide gel electrophoresis and were transferred onto the nitrocellulose membrane (Hybond ECL; GE Healthcare). The membrane was incubated with specific antibodies. The bands of the target proteins were detected using ECL Plus reagent and ImageQuant LAS 4000 (GE Healthcare, Menlo Park, CA, USA).
A general note: Immunoblotting shows a protein as a band on a membrane.

For data set [16], the target named is T3, GST-PDHK1 (Homo sapiens, UniProt Q15118).
T3 construct: expressed in transfected cells; host or cells: HEK293T
T3 sequence (Q15118 29-436): as the sequence (Q15118 29-436) above
The experiment in a line: In vitro PDHK kinase assay (GST-PDHK1, recombinant PDHA, western blot). The following applies: phosphorylation of recombinant PDHA by western blot. In kind it is biochemical. On the procedure:
The kinase assay of PDHK1 was carried out as described previously. Briefly, HEK293T cells, transfected with GST-PDHK1 construct, were lysed, and the lysate was incubated with Glutathione Sepharose 4B beads (Amersham Biosciences, Uppsala, Sweden). The beads were washed and recombinant PDHA was added and incubated for 5 min at 30 °C in the kinase buffer. The phosphorylation of PDHA was analyzed by western blot analysis.

Data set [17] is described as follows: Blood biochemistry of tumor-bearing mice. In kind it is in vivo, C57BL/6 mice. The note with it: serum; for Creatinine: below limit of detection; for BUN: mean ± SD (control 8.6 ± 0.8); for ALT: mean ± SD (control 14.8 ± 2.5); for AST: mean ± SD (control 79.8 ± 35.3). On the procedure:
The blood sera were collected from the retro-orbital plexus of tumor-bearing mice treated with Hu.A. The levels of AST, ALT, BUN, and creatinine were analyzed by a commercial service provided by Green Cross Co. (Yongin, Korea).

In data set [18] the target is T1, PDHK1. The following applies: cited from earlier work.
Data set [19] addresses T1, PDHK1. The following applies: read-out: IC50 for inhibiting PDHK1 activity; cited from earlier work.
For data set [20], the system named is tumor growth. The following applies: JX06 is ref 12; cited from earlier work.

In the case of `CC1OC(OC2C(OC3CCC4(C)C(CCC5(C)C4CC=C4C6CC(C)(C)CCC6(C(=O)O)CCC45C)C3(C)C)OCC(O)C2O)C(O)C(OC2OCC(O)C(O)C2O)C1O` (stereo not drawn) [Hu.A, Huzhangoside A], the IC50 in data set [1] is 1500 nM; in data set [2], 5700 nM; in data set [7] it was 2300 nM; in data set [14] it was 11700 nM. For the same compound, the cytotoxic effect entry in [3] (3 μM, 24 h) is listed as “more than 80%”; in data set [6], “more than 80%”; in data set [8], “more than 80%”; in data set [11], “more than 80%”; in [13] it was “more than 80%”. In addition, in [3] (DLD-1, MitoTEMPO 50 μM 1 h pre-treatment, then 3 μM Hu.A 6 h, serum-free), the “cytotoxic effect of Hu.A after MitoTEMPO pre-treatment” value was “significantly reduced”. Besides, the “[α-32P]ATP-binding activity of PDHK1” value in data set [4] is listed as “decreased”. For the same compound, in data set [5] (1 mg/kg, western blot), the “levels of cleaved forms of caspase-3, -9, and PARP in tumor tissues” value was “increased”. Further, the “growth of the allograft LLC cells (tumor volume and weight)” value in data set [5] (0.1, 0.5 and 1 mg/kg/day i.p., dose-dependent) is recorded as “significantly suppressed”. For the same compound, the “staining of Ki-67 in tumor tissues” value in [5] (immunohistochemistry, Hu.A-treated mice) is reported as “reduced”. Also, the “phosphor-PDHA levels in tumor tissues” value in data set [5] (western blot, Hu.A-treated mice) is “markedly decreased”. Also, in data set [9], the O2 consumption rate entry is reported as “increased”. For the same compound, in data set [10], the “secretory lactate levels in media” value is reported as “reduced”. Further, the “binding of PDHK and PDC E2 subunit” value in data set [12] is on record as “did not significantly affect”. For the same compound, the “protein levels of PDHK isozymes (PDHK1-4)” value in data set [15] is recorded as “did not significantly change”. The “kinase activity of GST-PDHK1” value in [16] is on record as “significantly inhibited”. The Creatinine in data set [17] (0.1 mg/kg i.p.), in data set [17] (0.5 mg/kg i.p.) and in data set [17] (1 mg/kg i.p.) was < 0.17 mg/dL in each case. The BUN in data set [17] (0.1 mg/kg i.p.) is 8.8 ± 0.9 mg/dL; in [17] (0.5 mg/kg i.p.), 8.9 ± 0.6 mg/dL; in [17] (1 mg/kg i.p.) it was 8.4 ± 1.0 mg/dL. For the same compound, the ALT in data set [17] (0.1 mg/kg i.p.) came to 16.7 ± 2.5 U/L; in [17] (0.5 mg/kg i.p.), 19.2 ± 5.6 U/L; in [17] (1 mg/kg i.p.), 19.6 ± 3.1 U/L. For the same compound, the AST is on record as 94.5 ± 41.0 U/L in data set [17] (0.1 mg/kg i.p.), 87.5 ± 33.8 U/L in [17] (0.5 mg/kg i.p.) and 95.2 ± 43.1 U/L in [17] (1 mg/kg i.p.).

For the compound `C[C@@H]1C[C@H]2O[C@@H]2/C=C\C=C\C(=O)Cc2c(Cl)c(O)cc(O)c2C(=O)O1` [radicicol], in data set [18], the “concentration administered to suppress the intracellular PDHK1 activity” value was 10 µM.

In the case of `S=C(SSC(=S)N1CCOCC1)N1CCOCC1` [JX06], in data set [19], the IC50 was 49 nM. Moreover, the “concentration required for inhibition of tumor growth in in vivo experiments” value in [20] was 40 to 80 mg/kg. In data set [18], the “concentration administered to suppress the intracellular PDHK1 activity” value is 10 µM.

The term IC50 denotes the midpoint of a concentration-inhibition curve.
